Assay results reported in patent US20260335323A1, “CHIMERIC MOLECULE” (UCL Business Ltd, priority 2023, published 2026).

Columns and labels:
SH-SY5Y cells = test: mito-mKeima mitophagy assay (mitophagy index); assay type: cell-based, human; settings: mitochondrial toxin treatment
Experimental: FIG. 1. The structure of AUTAC-4 is shown in (A). (B) Representative images of SH-SY5Y cells stably expressing the mito-mKeima reporter treated with AUTAC4 for 18 h. Nuclei were stained with Hoechst 33342, healthy mitochondria are shown in green and mitochondria in lysosomes are shown in red. (C-E) Fold change in mitophagy index over time after treatment with increasing concentrations of AUTAC4 under treatment with DMSO (C), 3 mM CCCP (D) or 0.1/0.1 mM antimycin/oligomycin (E), also for 18 h. (F) Quantification of changes in mitochondrial membrane potential over time (DYm) by measuring the TMRM relative fluorescence intensity (RFI) treated with DMSO, 10 mM CCCP, 10 mM and 20 mM AUTAC4. Normalised to number of nuclei. (G) Representative western blot of SH-SY5Y cells treated with DMSO, 10 mM AUTAC4 or 10 mM AUTAC4+0.1/0.1 mM antimycin/oligomycin for 18 h and, probed for p62, b-actin and Tom20. Quantifications of western blot for changes in Tom20 and p62 levels shown in (H) and (I), respectively. (J) Representative images of PANC-1 cells stably expressing the mCherry-EGFP-LC3 tandem reporter. Nuclei stained with Hoechst 33342, autophagosomes are shown in the EGFP channel and autolysosomes in the mCherry channel. Fold change in the number of autophagosome (K) and autolysosome (L) puncta in AUTAC4 treated cells. All data shown are mean±SEM, n=3, *p<0.05, *** p<0.001. For mito-mKeima experiments, statistics were calculated by Two-way ANOVA with Tukey's multiple comparisons test. For western blots, TMRM and LC3 tandem reporter assay, statistics were calculated with one-way ANOVA with Tukey's multiple comparisons test.
(§1) FIG. 5. ULKTACs induce potent mitophagy after colocalisation and local activation of ULK1 at mitochondria (A) Representative immunofluorescence of PANC-1 cells treated with CCCP, ULKTACs or both and immunostained for TOM20 and ULK1 and counterstained with Alexa 488 and 568, respectively. Nuclei stained with Hoechst 33342. (B) Quantification of the colocalised ULK1 to TOM20 spot area of PANC-1 cells treated with DMSO, 5 mM CCCP, 10 mM BL-918, 10 mM BL-918+5 mM CCCP, […] NZ-65, […] NZ-65+5 mM CCCP, […] NZ-66, […] NZ-66+5 mM CCCP, 50 mM TSPO ligand, […] NZ-65+50 mM TSPO ligand, […] NZ-66+50 mM TSPO ligand. (C) Western blot of SH-SY5Y cells treated with 1 mM ULKTACs, 5 mM CCCP or both, probed for Mfn2, b-Actin and Tom20—quantifications are shown in (D) for Mfn2, normalised to Actin. (E) Representative images of SH-SY5Y cells stably expressing the mito-mKeima reporter treated with 3 mM CCCP, NZ-65 or both. Nuclei were stained with Hoechst 33342, healthy mitochondria are shown in green and mitochondria in lysosomes are shown in red. Fold change in mitophagy index over time after treatment for the indicated timepoints with title treatments alone or co-treated with 1.25 mM ULKTAC or 10 mM ULKTAC NZ-65 (F) or NZ-66 (G). Fold change in mitophagy index over time after treatment for the indicated timepoints with DMSO, 1.25 µM NZ-65 or NZ-66±50 µM TSPO ligand under co-treatment with DMSO (H) or 3 μM CCCP (I). […] Normalised to number of nuclei. All data shown are mean±SEM, n=3, *p<0.05, ** p<0.01, *** p<0.001. For colocalisation and TMRM experiments, one-way ANOVA with Dunnett's multiple comparisons test. For western blots, one-way ANOVA with Tukey's multiple comparisons test and unpaired t-test. For mito-mKeima experiment, two-way ANOVA with Tukey's multiple comparisons test.
SH-SY5Y stably expressing mito-mKeima were produced as previously described28,29. Cells were seeded in 384 well CellCarrier Ultra plates (PerkinElmer) 24 hours before treatment in complete media without phenol red. Cells were treated with increasing concentrations of BL-918, AUTAC4, NZ-65 or NZ-66, 24 hours prior to treatment with increasing concentrations of mitochondrial uncouplers to cause mitochondrial insult. SH-SY5Y mitochondria were treated with DMSO, 3 μM CCCP, 10 μM CCCP, 0.1/0.1 μM antimycin/oligomycin (AO), 0.5/0.5 µM AO or 1/1 μM AO. […]

Mfn2 = test: Western blot, Mfn2 degradation in MEF WT; assay type: cell-based, mouse; settings: with ULKTAC; cells not given
Experimental: FIG. 6. ULKTACs rely on ULK1 for the redirection of autophagy components to mitochondria and subsequent mitophagic degradation (A) Western blot of mouse embryonic fibroblasts (MEF) WT and MEF ULK1/2^−/− treated with 1 mM ULKTACs, 5 mM CCCP or both and probed for ULK1, Mfn2 and Actin—quantification of the relative intensity of Mfn2 shown in (B), normalised to Actin. Representative immunofluorescence of MEF WT (C) and MEF ULK1/2^−/− (D) treated with 5 mM CCCP, 1 mM ULKTACs or both and immunostained for Alexa 488 ATP5a and Alexa 647 LC3B. Quantification of the colocalised LC3 to ATP5a spot area shown in WT vs ULK1/2^−/− treated MEF cells shown in (E). Data shown are mean±SEM, n=3, *p<0.05, ** p<0.01, *** p<0.001, Two-way ANOVA with Tukey's multiple comparisons test.
Cells were homogenised in protein lysis buffer consisting of 0.1 M Tris pH 8.0, 0.1 M NaCl, 5% glycerol, IGEPAL® CA-630 (#18896. Sigma-Aldrich) and 5 mM EDTA, 0.1 M N-ethyl maleimide (ThermoFisher, #23030) and protease inhibitor (Cell Signalling Technologies, #5871). Protein concentrations were determined using the BCA assay to ensure equal loading. […] The membranes were immunoblotted with primary antibodies, overnight at 4° C. ULK1 (D8H5) Rabbit mAb (#0854) [1:1000], Phospho-ULK1 (Ser 317) Rabbit antibody (#37762) [1:1000], LC3B Rabbit antibody (#2775) [1:1000], TOM20 (D8T4N) Rabbit mAb (#42406) [1:1000] and, Phospho-Ubiquitin (Ser 65) (E2J6T) Rabbit mAb (#62082) [1:500] were obtained from Cell Signalling Technologies. Recombinant Anti-Vinculin Rabbit antibody (EPR8185) (#ab129002) [1:5000] and Anti-Mitofusin2 mouse antibody (6A8) (#ab56889) [1:1000] were purchased from Abcam. Anti-Actin mouse monoclonal antibody (#A1978) [1:1000] and Anti-rabbit p62/SQSTM1 (#P0067) [1:1000], were purchased from Sigma-Aldrich. Mono- and polyubiquitinylated conjugates monoclonal antibody (FK2) (BML-PW8810-0100) [1:500] was purchased from Enzo Life Sciences. Anti BRD4 (E2A7X) rabbit monoclonal antibody (#13440), Anti c-MYC (D84C12) rabbit monoclonal antibody (#5605) [1:1000], Anti GAPDH (D4C6R) mouse monoclonal antibody (#97166) [1:1000], Anti Max (S20) rabbit monoclonal antibody (#4739) [1:1000] were purchased from Cell Signalling Technologies. Anti Phospho-CHK1 (Ser 345) rabbit monoclonal antibody (#2341) [1:1000], Anti gamma-H2AX (Ser 139) rabbit monoclonal antibody (#2577) [1:1000] were obtained from Cell Signalling Technologies, Anti RPA32/RPA2 (phospho S4/S8) rabbit monoclonal antibody (ab87277) [1:1000] were obtained from Abcam.
Membranes were then incubated with horseradish peroxidase (HRP)-conjugated secondary antibodies (Rabbit #7074 and Mouse #7076) purchased from Cell Signalling Technologies for 1 hour and the HRP signal was detected using EZ-ECL Enhanced Chemiluminescence Detection Kit for HRP (#20-500-500, Sartorius), and imaged with an Alliance Q9 Advanced (UVITec). Where required, membranes were stripped with mild stripping buffer consisting of 0.2 M glycine, 3.47 mM SDS, 1% Tween 20, pH 2.2, blocked for 1 hour with TBS-T+3% BSA and re-probed with primary antibodies.
Therefore, we conclude that NZ-65 and NZ-66 are novel ULKTAC molecules that initiate the recruitment of ULK1 to mitochondria, leading to an increase in local ULK1 activity, the formation of an autophagosome and mitophagy.

ULK1 = biological target: T1, ULK1 (Homo sapiens, UniProt O75385); test: ULK1/TOM20 co-localisation immunofluorescence in PANC-1 cells; assay type: cell-based; set-up: pSer317 blot or TOM20 co-localisation; settings: PANC-1, 18 hours, alone
T1 sequence (O75385 1-1050): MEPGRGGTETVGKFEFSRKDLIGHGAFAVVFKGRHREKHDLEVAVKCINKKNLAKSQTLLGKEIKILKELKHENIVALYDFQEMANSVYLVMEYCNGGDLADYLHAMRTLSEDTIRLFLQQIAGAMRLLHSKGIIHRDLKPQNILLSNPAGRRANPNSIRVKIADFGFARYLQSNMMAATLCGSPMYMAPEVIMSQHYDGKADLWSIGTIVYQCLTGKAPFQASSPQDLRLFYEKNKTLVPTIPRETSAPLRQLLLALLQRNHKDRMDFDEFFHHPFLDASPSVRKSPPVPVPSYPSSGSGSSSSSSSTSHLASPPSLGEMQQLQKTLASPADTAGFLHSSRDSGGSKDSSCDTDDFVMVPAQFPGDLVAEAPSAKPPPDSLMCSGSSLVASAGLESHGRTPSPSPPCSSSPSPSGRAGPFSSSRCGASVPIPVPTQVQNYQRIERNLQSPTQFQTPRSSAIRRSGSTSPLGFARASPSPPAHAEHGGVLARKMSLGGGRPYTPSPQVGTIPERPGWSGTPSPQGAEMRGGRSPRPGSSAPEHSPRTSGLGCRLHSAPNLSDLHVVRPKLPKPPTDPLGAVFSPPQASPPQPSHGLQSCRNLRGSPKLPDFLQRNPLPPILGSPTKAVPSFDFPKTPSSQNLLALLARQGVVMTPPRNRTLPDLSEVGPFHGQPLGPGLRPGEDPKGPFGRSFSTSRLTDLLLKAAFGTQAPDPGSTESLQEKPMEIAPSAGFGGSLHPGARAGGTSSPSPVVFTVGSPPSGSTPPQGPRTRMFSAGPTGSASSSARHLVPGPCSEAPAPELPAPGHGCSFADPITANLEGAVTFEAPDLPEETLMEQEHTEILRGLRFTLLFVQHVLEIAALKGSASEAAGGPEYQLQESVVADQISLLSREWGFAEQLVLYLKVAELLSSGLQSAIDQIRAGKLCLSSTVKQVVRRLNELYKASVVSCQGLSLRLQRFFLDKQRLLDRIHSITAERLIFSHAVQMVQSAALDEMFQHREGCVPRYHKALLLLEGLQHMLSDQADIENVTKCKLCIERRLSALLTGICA
Experimental: as §1
For TOM20/ULK1 immunofluorescence, cells were seeded in a 384 well PerkinElmer CellCarrier Ultra plate 24 hours prior to treatment with compounds. Cells were treated for 18 hours after which they were fixed with 4% paraformaldehyde (PFA) in phosphate buffered saline (PBS) and blocked with 10% FBS and 0.1% Triton in PBS. Plates were incubated at 4° C. overnight, with 1:400 mouse anti-TOM20 (Santa Cruz, #sc-17764) and 1:400 rabbit anti-ULK1 (Cell Signalling Technologies, #0854). The following day, plates were incubated with 1:1000 goat anti-mouse Alexa 488 (ThermoFisher Scientific, #A-11029), 1:1000 goat anti-rabbit Alexa 568 (ThermoFisher Scientific, #A-11011) and 1.62 μM Hoechst 33342 at room temperature for 1 hour before imaging. For ATP5a/LC3 immunofluorescence, cells were fixed with ice-cold 1:1 MeOH: acetone and blocked with 3% BSA (Sigma-Aldrich, #A3803) in Dulbecco's PBS (D-PBS). Plates were incubated overnight at 4° C. with 1:400 LC3B (D11) XP Rabbit mAb Alexa Fluor 647 Conjugate (Cell Signalling Technologies, #65299) and 1:400 ATP5a (Cell Signalling Technologies, #18023) lightning-linked to Alexa Fluor 488. The following day, plates were incubated with 1.62 […] at room temperature for 1 hour before imaging. Excitation and emission spectra for each channel are as follows: Hoechst 33342=405/435-480 nm, Alexa 488=488/500-550 nm and Alexa 568=561/570-630 nm. Images were acquired at 40× and 63× magnification with water immersion lens.
To understand the temporal kinetics of NZ-65 and NZ-66, we assessed the recruitment of ULK1 to mitochondria, using co-localisation of ULK1 and TOM20 by immunofluorescence. […] After showing the co-localisation of ULK1 to the outer mitochondrial membrane (OMM) after ULKTAC treatment, we wanted to determine whether the ULKTACs induced mitophagy. To do this, we measured changes in Mfn2 under basal conditions and co-treatment with CCCP (FIG. 5C, D).

SMILES: N#CC(C#N)=NNc1cccc(Cl)c1 [CCCP, reference compound]
- induction of mitophagy (SH-SY5Y cells): induction of mitophagy

SMILES: COc1ccc(Nc2ncc(C(F)(F)F)c(NC3CC3)n2)cc1OC [SBP-7455, reference compound]
- ULKTAC mediated degradation of Mfn2 in presence of dual ULK1/2 inhibitor (Mfn2): additionally demonstrating the requirement for ULK1 for ULKTAC mediated degradation of Mfn2

SMILES: NC(=O)C(=O)c1c(-c2ccccc2)[nH]c2ccccc12 [TSPO ligand, reference compound]
- co-localisation of ULK1 and TOM20 (ULK1): neither BL-918 nor the TSPO ligand alone induce co-localisation
